In patent publication EP4778516A1, “CALCIFICATION ENHANCER FOR OSTEOBLAST MC3T3-E1 CELL” (Watanabe Oyster Laboratory Co., Ltd., priority 2023, dated 2025):

What was measured:
Assay type in all cases: cell-based, mouse
[1] = system: MC3T3-E1 cells; experiment: Cell death assay (count of attached cells after 48 hours from subconfluence)
Procedure: To evaluate the effects of DHMBA on cell death of osteoblasts MC3T3-E1, the cells (1×10^5/ml medium per well in a 24-well plate) were cultured in a-MEM containing 10% FBS and 1% P/S. After culturing for 3 days until reaching subconfluence, either a reagent vehicle (1% ethanol as final concentration) or DHMBA (0.1, 1, 10, 100, or 1000 mM) was added, and the cells were further cultured for 48 hours. After culture, to count the number of cells attached to each well, a […] containing 0.05% trypsin and EDTA (0.1 ml per well) was added, and then the culture plates were incubated at 37°C for 2 minutes. Subsequently, a-MEM (0.9 ml) containing 10% FBS and 1% P/S was added, and the cells were detached and mixed by pipetting. The cell suspension (0.1 ml) was mixed with 0.1 ml of 0.5% trypan blue staining solution. By this staining, […]. Viable cells were counted under a microscope (Olympus MTV-3) using a hemocytometer (Sigma-Aldrich, St. Louis, MO) and a cell counter (H-102P, Line Seiki Co., Ltd., Tokyo, Japan), and the average of two counts was calculated. Cell numbers were expressed as the number per well.

[2] = system: NF-kB p65; experiment: Western blotting of cell lysates; conditions: 3 days
Procedure: MC3T3-E1 cells (1×10^6 cells in 10 ml medium in a 100-mm dish) were cultured for 3 days in a-MEM containing 10% FBS and 1% P/S in the presence of a reagent vehicle (1% ethanol as final concentration), DHMBA (10 mM), TNF-a (10 ng/ml medium), or DHMBA (10 mM) in combination with TNF-a (10 ng/ml). After culture, the dishes were washed three times with cold PBS (10 ml), and adherent cells were removed from the dishes by scraping in Cell Lysis Buffer (Cell Signaling Technology, Inc., Danvers, MA, USA). Protein samples obtained from the cell lysates were loaded ([…] per lane) and separated by SDS-polyacrylamide gel electrophoresis (12% SDS-PAGE), as previously described. After electrophoresis, the membranes were incubated overnight at 4°C with primary antibodies (each diluted 1:1,000) against target proteins NF-kB p65 (catalog no. 3034, rabbit) and b-actin (catalog no. 3700, mouse). […] Protein bands were then detected using a chemiluminescent substrate (catalog no. 34577, Thermo Fisher Scientific Inc., Rockford, IL, USA) on X-ray film. A total of four films obtained from four independent experiments using separate membranes were scanned using an Epson Perfection 1660 Photo scanner, and band intensities were quantified using ImageJ2 software (National Institutes of Health, Bethesda, MD, USA).

[3] = system: NF-kB; experiment: NF-kB reporter assay (luciferase); conditions: Fig. 8C
Procedure: An NF-kB-responsive luciferase reporter assay (pNF-kB-Luc, BD Biosciences) was performed according to the method previously described by the present inventors. MC3T3-E1 cells (2×10^4 cells per well in […] in a 96-well plate) were cultured for 24 hours in a-MEM containing 10% FBS and 1% P/S. After culture, the medium was removed, and the cells were washed twice with a-MEM without FBS or antibiotics. a-MEM ([…]) without FBS or antibiotics was then added to each well containing the cells. A reporter plasmid or an empty vector control (pGL3-Basic) was transfected into MC3T3-E1 cells using Lipofectamine 2000 Reagent (Invitrogen) in a-MEM without FBS or antibiotics. Five hours later, the medium was replaced with a-MEM containing 10% FBS and 1% P/S, and the cells were stimulated with TNF-a (1 or 10 ng/ml) for 24 hours. In parallel, the cells were cultured with either a reagent vehicle (1% ethanol as final concentration) or DHMBA (1 or 10 mM). After culture, the cells were extracted with Passive Lysis Buffer (Promega Corp., Madison, WI), and luciferase activity was measured using a Luciferase Assay System (Promega Corp.) with a microplate reader (Turner Designs, Inc., Sunnyvale, CA, USA). Equal transfection efficiency among all plasmids was validated by using the luciferase reporter plasmid pRL-SV40 (Promega Corp., Madison, WI).

Q: Which “number of cells attached to the dishes (cell death)” value ([1]; DHMBA 0.1, 1, 10, or 100 mM, 48 hours after subconfluence, Fig. 1C) does the source give for `COc1c(O)cc(CO)cc1O` [DHMBA, 3,5-dihydroxy-4-methoxybenzyl alcohol] here?
A: The value was “not changed”.

Q: And the “number of cells (cell death)” value ([1]; DHMBA 1000 mM, 48 hours after subconfluence, Fig. 1C)?
A: Its value is “significantly decreased”.

Q: What about the “TNF-a-enhanced death of MC3T3-E1 cells” value ([1]; TNF-a 1 or 10 ng/ml plus DHMBA 1 or 10 mM, 48 hours, Fig. 3B) of the same molecule?
A: Its value is “suppressed”.

Q: And the “expression level of NF-kB p65 in MC3T3-E1 cells” value ([2]; DHMBA 10 mM, without TNF-a, Figs. 8A and 8B)?
A: Its value is “reduced”.

Q: And the “TNF-a-induced increase of the level of NF-kB p65” value ([2]; TNF-a 10 ng/ml plus DHMBA 10 mM, Fig. 8A and 8B)?
A: Its value is “suppressed”.

Q: And the “NF-kB promoter activity in MC3T3-E1 cells” value ([3]; DHMBA in the absence of TNF-a)?
A: The value was “reduced”.

Q: What about the “TNF-a-induced increase of NF-kB promoter activity in MC3T3-E1 cells” value ([3]; TNF-a 1 or 10 ng/ml plus, 24 hours) of the same molecule?
A: Its value is “suppressed”.
